Test results as given in PubChem BioAssay (NCI).
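Following 48 hours of exposure in 96-well plates, responses at five concentrations were used to interpolate endpoints linearly. GI50 marks 50% less growth. TGI marks complete inhibition of growth.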

What was measured:
Experiment in all cases: inhibition of tumour cell growth, NCI panel, 48 h
NCI-H522 lung = system: NCI-H522 lung
NCI/ADR-RES ovarian = system: NCI/ADR-RES ovarian
OVCAR-3 ovarian = system: OVCAR-3 ovarian
OVCAR-4 ovarian = system: OVCAR-4 ovarian
OVCAR-5 ovarian = system: OVCAR-5 ovarian
OVCAR-8 ovarian = system: OVCAR-8 ovarian
PC-3 prostate = system: PC-3 prostate
RPMI-8226 leukemia = system: RPMI-8226 leukemia
RXF 393 renal = system: RXF 393 renal
SF-268 CNS = system: SF-268 CNS
SF-295 CNS = system: SF-295 CNS
SF-539 CNS = system: SF-539 CNS
SK-MEL-2 melanoma = system: SK-MEL-2 melanoma
SK-MEL-28 melanoma = system: SK-MEL-28 melanoma
SK-MEL-5 melanoma = system: SK-MEL-5 melanoma
SK-OV-3 ovarian = system: SK-OV-3 ovarian
SN12C renal = system: SN12C renal
SNB-19 CNS = system: SNB-19 CNS
SR leukemia = system: SR leukemia
SW-620 colon = system: SW-620 colon
T-47D breast = system: T-47D breast
TK-10 renal = system: TK-10 renal
U251 CNS = system: U251 CNS
UACC-257 melanoma = system: UACC-257 melanoma
UACC-62 melanoma = system: UACC-62 melanoma

Which results are given for `N#Cc1nc2c(S(=O)(=O)c3ccccc3)c(N)n(Cc3ccc(Cl)cc3)c2nc1C#N`?
GI50 (NCI-H522 lung): 7.18 µM; TGI (NCI-H522 lung): > 50 µM; GI50 (NCI/ADR-RES ovarian): 424 nM; TGI (NCI/ADR-RES ovarian): 10.3 µM; GI50 (OVCAR-3 ovarian): 12 µM; TGI (OVCAR-3 ovarian): > 50 µM; GI50 (OVCAR-4 ovarian): 17.8 µM; TGI (OVCAR-4 ovarian): > 50 µM; GI50 (OVCAR-5 ovarian): 13 µM; TGI (OVCAR-5 ovarian): > 50 µM; GI50 (OVCAR-8 ovarian): 8.51 µM; TGI (OVCAR-8 ovarian): 47.6 µM; GI50 (PC-3 prostate): 18.3 µM; TGI (PC-3 prostate): > 50 µM; GI50 (RPMI-8226 leukemia): 14.1 µM; TGI (RPMI-8226 leukemia): > 50 µM; GI50 (RXF 393 renal): 2450 nM; TGI (RXF 393 renal): 13.9 µM; GI50 (SF-268 CNS): 9.14 µM; TGI (SF-268 CNS): 37.6 µM; GI50 (SF-295 CNS): 14.7 µM; TGI (SF-295 CNS): > 50 µM; GI50 (SF-539 CNS): 19.4 µM; TGI (SF-539 CNS): > 50 µM; GI50 (SK-MEL-2 melanoma): 32.6 µM; TGI (SK-MEL-2 melanoma): > 50 µM; GI50 (SK-MEL-28 melanoma): 15.3 µM; TGI (SK-MEL-28 melanoma): > 50 µM; GI50 (SK-MEL-5 melanoma): 11.5 µM; TGI (SK-MEL-5 melanoma): > 50 µM; GI50 (SK-OV-3 ovarian): 9.9 µM; TGI (SK-OV-3 ovarian): 29.3 µM; GI50 (SN12C renal): 5.14 µM; TGI (SN12C renal): 17.6 µM; GI50 (SNB-19 CNS): 13.8 µM; TGI (SNB-19 CNS): 41 µM; GI50 (SR leukemia): 9.72 µM; TGI (SR leukemia): > 50 µM; GI50 (SW-620 colon): 17 µM; TGI (SW-620 colon): > 50 µM; GI50 (T-47D breast): 15.5 µM; TGI (T-47D breast): 46.4 µM; GI50 (TK-10 renal): 12.2 µM; TGI (TK-10 renal): 26.5 µM; GI50 (U251 CNS): 8.09 µM; TGI (U251 CNS): 18.3 µM; GI50 (UACC-257 melanoma): 33.1 µM; TGI (UACC-257 melanoma): > 50 µM; GI50 (UACC-62 melanoma): 7.51 µM; TGI (UACC-62 melanoma): 18.1 µM
